In US20240124469A1, “PIM KINASE INHIBITOR” (Hangzhou Biosun Pharmaceutical Co., Ltd., priority 2021, published 2024):
Read-outs that look alike come from different tables or passages of the source.

Key:
[1] = target: PIM1 (Homo sapiens (Human), UniProt P11309); experiment: PIM1 kinase activity test (Mobility shift assay); format: biochemical
Protocol: (§1) The efficacy of the compounds on the activity of PIM1/2/3 was tested by utilizing the Mobility shift assay method, with the specific procedures shown as follows: the test compounds were each dissolved in DMSO to be prepared into a 10 mM stock solution; for each of the test compounds, the stock solution was subjected to a 3-fold dilution from an initial concentration of 10 μM to obtain 10 concentrations.
(§2) PIM1, PIM2, and PIM3 (all three kinases are from Carna) were each prepared with 1× Kinase buffer into a kinase solution at a concentration that was 2.5 times the final concentration. 10 μL of kinase solution at a concentration that was 2.5 times the final concentration was added to each of the compound wells and the positive control well, and 10 μL of 1× Kinase buffer was added to the negative control well. The plate was centrifuged at 1000 rpm for 30 s, mixed well by shaking, and then incubated at room temperature for 10 min. A mixed solution of ATP and Kinase substrate 20 (from GL) at a concentration that was 25/15 times the final concentration was prepared with 1× Kinase buffer. The reaction was started by adding 15 μL of the mixed solution of ATP and Kinase substrate 20 at a concentration that was 25/15 times the final concentration. The 384-well plate was centrifuged at 1000 rpm for 30 s, mixed well by shaking, and then incubated at room temperature for 60 min. 30 μL of stop assay buffer was added to stop the kinase reaction. The plate was centrifuged at 1000 rpm for 30 s and mixed well by shaking. The conversion rates were read using Caliper EZ Reader.
(§3) The IC50 values of the test compounds for kinase activity were obtained by adopting a fitted dose-response curve of analytic software GraphPad Prism 5.

[2] = target: PIM2 (Homo sapiens (Human), UniProt Q9P1W9); experiment: PIM2 kinase activity test (Mobility shift assay); format: biochemical
Chain of PIM2 (Q9P1W9 whole entry): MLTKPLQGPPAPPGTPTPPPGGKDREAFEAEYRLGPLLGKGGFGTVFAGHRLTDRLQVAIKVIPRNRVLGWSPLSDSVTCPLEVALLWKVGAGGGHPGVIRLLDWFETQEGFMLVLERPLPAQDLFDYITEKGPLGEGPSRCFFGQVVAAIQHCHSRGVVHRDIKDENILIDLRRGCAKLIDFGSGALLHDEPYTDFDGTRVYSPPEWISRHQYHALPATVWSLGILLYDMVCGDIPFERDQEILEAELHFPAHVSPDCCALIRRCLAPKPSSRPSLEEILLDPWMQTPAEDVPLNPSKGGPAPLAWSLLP
Protocol: as §1, §2, §3

[3] = target: PIM3 (Homo sapiens (Human), UniProt Q86V86); experiment: PIM3 kinase activity test (Mobility shift assay); format: biochemical
Protocol: as §1, §2, §3

[4] = test system: Ba/F3-EPOR-JAK2-V617F; experiment: Cell inhibitory activity test (72 h CTG); format: cell-based
Protocol: The EPOR-JAK2-V617F gene was transferred into Ba/F3 wild-type cells by a retrovirus packaging system to obtain a stably transfected cell line Ba/F3-EPOR-JAK2-V617F, which was used for the cell inhibitory activity ICso test of the compounds (reference: Blood. 2010; 115(15): 3109-3117). The specific procedures were as follows: • Cells were seeded in a 96-well plate, treated with the test compounds from DMSO stock solutions (final concentration of DMSO is 0.2%), and cultured at 37° C. with 5% CO2 for 72 h. Then, the cell proliferation inhibitory activity was assayed by the CTG (Cell-Titer Glo) method. For each of the test compounds, the stock solution was subjected to a 3-fold dilution from an initial concentration of 10 μM to obtain 9 concentrations. The dose-response relationship curve was fitted by using Graphpad 7.0 analysis software, and IC50 values were obtained.

[5] = Pharmacokinetic test; format: in vivo; conditions: BALB/c mice; for AUC(0-t) / clearance / half-life / Vd / Cmax / Tmax: female, mouse, plasma; for half-life: read-out: Terminal t1/2 (converted); for Vd: read-out: Vss
Protocol: Experimental animals: BALB/c mice, female; weight: 19-25 g.
Preparation of test sample: the target compound was prepared into solutions at 0.4 mg/mL (for intravenous administration) and 5.0 mg/mL (for oral administration) for later use. Route of administration: oral administration/intravenous injection. Dosing volume and frequency: 5 mL/kg (intravenous injection) or 10 mL/kg (oral administration), single dose.
Sample collection: blood was collected at the following time points: 5 min, 15 min, 30 min, 1 hr, 2 hr, 4 hr, 8 hr, and 24 hr after the administration.
Sample analysis: the collected samples were detected by using an LC-MS/MS method. The model of the instrument used was AB Sciex 5500.
Pharmacokinetic data analysis: the resulting plasma concentration data were fitted and calculated according to a non-compartmental model.

Chain of PIM1 (P11309 whole entry): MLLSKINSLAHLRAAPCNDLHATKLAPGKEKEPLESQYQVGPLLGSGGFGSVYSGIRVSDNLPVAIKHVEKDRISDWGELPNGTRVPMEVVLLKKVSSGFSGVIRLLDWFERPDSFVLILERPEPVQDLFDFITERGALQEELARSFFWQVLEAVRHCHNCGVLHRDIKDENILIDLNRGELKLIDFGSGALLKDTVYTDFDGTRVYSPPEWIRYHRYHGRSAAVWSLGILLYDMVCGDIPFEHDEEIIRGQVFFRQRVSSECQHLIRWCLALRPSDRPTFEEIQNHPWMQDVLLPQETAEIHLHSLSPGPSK

Row | SMILES | IC50 [1] [nM] | IC50 [2] [nM] | IC50 [3] [nM] | IC50 [4] [nM] | F ([5]; oral administration, 50 mg/kg) [%] | AUC(0-t) ([5]; intravenous injection, 2 mg/kg) [ng·h/mL] | clearance ([5]; intravenous injection, 2 mg/kg) [mL/min/kg] | half-life ([5]; intravenous injection, 2 mg/kg) [h] | Vd ([5]; intravenous injection, 2 mg/kg) [L/kg] | AUC(0-t) ([5]; oral administration, 50 mg/kg) [ng·h/mL] | Cmax ([5]; oral administration, 50 mg/kg) [ng/mL] | Tmax ([5]; oral administration, 50 mg/kg) [h] | half-life ([5]; oral administration, 50 mg/kg) [h]
1 | FC(F)(F)c1cccc(-c2cnc3ccc(NC4CC5(CCNCC5)C4)nn23)c1 [Compound 16, N-(7-azaspiro[3.5]nonan-2-yl)-3-[3-(trifluoromethyl)phenyl]imidazo[1,2-b]pyridazin-6-amine] | 2 to 10 | 100 to 1000 | 10 to 100 | > 150 |  |  |  |  |  |  |  |  | 
2 | CC(C)(O)[C@H]1CC[C@H](Nc2ccc3ncc(-c4ccc(C(F)(F)F)s4)n3n2)CC1 [Compound 20, 2-((1r,4r)-4-4-((3-(5-(trifluoromethyl)thiophen-2-yl)imidazo[1,2-b]pyridazin-6-yl)amino)cyclohexyl)propan-2-ol] | < 2 | 100 to 1000 | 10 to 100 | < 50 | 66.6 | 1090 | 31 | 1.06 | 1.85 | 18100 | 3980 | 1.33 | 3.5
3 | OC12CCC(Nc3ccc4ncc(-c5ccc(C(F)(F)F)s5)n4n3)(CC1)CC2 [Compound 29, 4-[[3-[5-(trefluoromethyl)-2-thienyl]imidazo[1,2-b]pyridazin-6-yl]amino]bicyclo [2.2.2] octan-1-ol] | < 2 | 10 to 100 | 10 to 100 | < 50 | 35.7 | 859 | 39.7 | 0.42 | 1.38 | 7650 | 6670 | 0.33 | 1.41
4 | OC[C@@H]1CC[C@@H](Nc2ccc3ncc(-c4ccc(C(F)(F)F)s4)n3n2)CO1 [Compound 46, [(2S,5R)-5-[[3-[5-(trifluoromethyl)-2-thienyl]imidazo[1,2-b]pyridazin-6-yl]amino]tetrahydropyran-2-yl]methanol] | 2 to 10 | 1000 to 10000 | 100 to 1000 | 100 to 150 | 89.9 | 523 | 65.8 | 0.26 | 1.47 | 11800 | 10600 | 0.5 | 0.91
5 | CC(C)(O)[C@H]1CC[C@H](Nc2ccc3ncc(-c4cccc(C(F)(F)F)c4)n3n2)CC1 [TP-3654, reference compound] | 10 to 100 | 100 to 1000 | 100 to 1000 | > 150 | 42.3 | 652 | 51.8 | 1.24 | 5.58 | 6800 | 2550 | 1 | 1.33

Second part, the compound after the results:

Row | IC50 [1] [nM] | IC50 [2] [nM] | IC50 [3] [nM] | IC50 [4] [nM] | F ([5]; oral administration, 50 mg/kg) [%] | AUC(0-t) ([5]; intravenous injection, 2 mg/kg) [ng·h/mL] | clearance ([5]; intravenous injection, 2 mg/kg) [mL/min/kg] | half-life ([5]; intravenous injection, 2 mg/kg) [h] | Vd ([5]; intravenous injection, 2 mg/kg) [L/kg] | AUC(0-t) ([5]; oral administration, 50 mg/kg) [ng·h/mL] | Cmax ([5]; oral administration, 50 mg/kg) [ng/mL] | Tmax ([5]; oral administration, 50 mg/kg) [h] | half-life ([5]; oral administration, 50 mg/kg) [h] | SMILES
6 | < 2 | 100 to 1000 | 10 to 100 | 50 to 100 |  |  |  |  |  |  |  |  |  | FC(F)(F)c1ccc(-c2cnc3ccc(NC4CCCNCC4)nn23)s1 (stereo not shown) [Compound 28, N-(azepan-4-yl)-3-[5-(trifluoromethyl)-2-thienyl] imidazo[1,2-b] pyrid azin-6-amine]
7 | < 2 | 100 to 1000 | 10 to 100 | 50 to 100 |  |  |  |  |  |  |  |  |  | FC(F)(F)c1ccc(-c2cnc3ccc(NC4CC5(CCNCC5)C4)nn23)s1 [Compound 31, N-(7-azaspiro[3.5]nonan-2-yl)-3-[5-(trifluoromethyl)-2-thienyl]imidazo[1,2-b]pyridazin-6-amine]
